From US9156860B2, “Boron-containing small molecules” (Anacor Pharmaceuticals, Inc., priority 2011, dated 2015)

Key:
[1] = tested on: adult cat flea (Ctenocephalides felis); assay: Example 7: therapeutic efficacy and speed of kill against adult cat flea infestations on dogs; type: in vivo; details: 25 mg/kg oral
Experimental: The therapeutic efficacy and speed of kill of 7, administered orally at a point dose of 25 mg/kg bodyweight, was evaluated against adult cat flea (Ctenocephalides felis) infestations on dogs. Twelve (12) male and female beagle dogs were allocated to one of four treatment groups (n=3 dogs per group). Group A was untreated, negative control; groups B, C and D received 7. On Day −1, all dogs were infested with approximately 100 unfed, adult fleas (approximately 50% male and 50% female). On Day 0, dogs in groups B, C and D were orally administered gelatin capsules containing 7, at a point dose of 25 mg/kg (50% technical active, 47% microcrystalline cellulose and 3% croscarmellose sodium, w/w). At eight (8) hours post-treatment, fleas were counted and removed from dogs in group B; at twelve (12) hours post-treatment, fleas were counted and removed from dogs in group C; and at twenty-four (24) hours post-treatment, fleas were counted and removed from dogs in groups A and D. GM percent efficacy of treatments against fleas was calculated using the following formula: […]

[2] = tested on: Lone star tick larvae (Amblyomma americanum); assay: Larval immersion microassay against larval-stage Lone star ticks; details: Amblyomma americanum, 24 h, read-out: activity (percent larval mortality)
Experimental: The larval immersion microassay was conducted as described in detail in White, et al., J. Med. Entomol. […] Compounds of the invention were formulated in dimethylsulfoxide (DMSO) to prepare a stock solution at a concentration of at least 10 mM. […] Approximately 30-50 Lone star tick larvae (Amblyomma americanum) were submerged into each well containing compounds. After a 30 minute immersion period, larvae were removed with a wide-bore pipette tip in 0.05 ml of fluid, dispensed into a commercial paper tissue biopsy bag which was sealed at the top with a plastic dialysis clip, inverted and allowed to air dry for 60 minutes. Bags containing larvae were then incubated at approximately 27 degrees Celsius and >90% relative humidity. After 24 hours, bags were opened, live and dead larvae were counted and percent larval mortality was calculated.
7 contains one chiral center, and is therefore a racemic mixture comprised of approximately 50% R- and 50% S-enantiomer. In vitro and surrogate animal (rat) studies were conducted to evaluate the biological activity of the R- and S-enantiomers of 7. For the in vitro study, larvae of the Lone star tick (Amblyomma americanum) were exposed to 17 (S-enantiomer) and 18 (R-enantiomer) using the larval immersion microassay at a concentration of no greater than 0.3 mM. Following exposure, larvae were removed, transferred to a tissue biopsy bag and incubated at approximately 27 degrees Celsius and >90% relative humidity. After 24 hours, biopsy bags were opened and the numbers of live and dead larvae were determined.

[3] = tested on: brown dog tick (Rhipicephalus sanguineus); assay: Example 5: efficacy against brown dog tick infestations on dogs; type: in vivo
Experimental: (§1) The therapeutic (knockdown) and residual efficacy of 7 and 8, each administered orally at a point dose of either 25 mg/kg or 50 mg/kg bodyweight, was evaluated against adult tick (Dermacentor variabilis and Rhipicephalus sanguineus) infestations on dogs. Twenty (20) male and female beagle dogs were allocated to one of five treatment groups, four (4) dogs per group: Untreated control; 7, 25 mg/kg; 7, 50 mg/kg; 8, 25 mg/kg; and 8, 50 mg/kg. On Day −1, all dogs were infested with approximately 50 unfed, adult D. variabilis ticks. On Day 0, dogs were orally administered gelatin capsules containing either 7 or 8 (50% technical active, 47% microcrystalline cellulose and 3% croscarmellose sodium, w/w) so as to achieve the desired point dosages. Ticks were counted and classified on all dogs, but not removed, on Day 1 (approximately 24 hours after treatment). On Day 2, approximately 48 hours after treatment, ticks were counted, classified and removed. Dogs were re-infested with the same number of D. variabilis ticks on Days 5, 12 and 19 with corresponding 48 hour post-infestation tick counts on Days 7, 14 and 21. Dogs were infested with approximately 50 unfed, adult brown dog ticks (Rhipicephalus sanguineus; approximately 50% male and 50% female) on Days 15 and 28, with corresponding 48 hour post-infestation tick counts on Days 17 and 30. GM percent efficacy of treatments against both tick species was calculated using the following formula: […]

[4] = Tolerability of oral treatment in dogs; type: in vivo, beagle dogs
Experimental: The therapeutic (knockdown) and residual efficacy of 7, administered orally at a point dosages of 5 and 25 mg/kg bodyweight, was evaluated against adult American dog tick (D. variabilis) and cat flea (C. felis) infestations on dogs. Sixteen (16) male and female beagle dogs were allocated to one of four treatment groups: Untreated control group (n=4 dogs); 7, 5 mg/kg liquid oral dosage form (n=4 dogs); 7, 25 mg/kg liquid oral dosage form (n=4 dogs); and 7, 25 mg/kg solid oral dosage form. Liquid dosage forms were prepared by dissolving 7 in a solution of 55% polyethylene glycol-300, 35% propylene glycol and 10% water at 25 mg/ml. Solid oral dosage form was prepared by thoroughly mixing 7 with microcrystalline cellulose and croscarmellose sodium (50:47:3, w/w) and placing into size 00 gelatin capsules. On Day 0, all dogs were orally administered 7 at the prescribed point dosages. Twenty-four (24) hours before treatment (Day −1), all dogs were infested with approximately 50 unfed, adult-stage American dog ticks (D. variabilis; approximately 50% male and 50% female). On Day 2, approximately 48 hours after treatment, ticks were removed and counts were conducted to determine the number and life-status classification of ticks present on all dogs (normal, moribund or dead; attached or detached). For all groups, dogs were re-infested with approximately 50 unfed, adult D. variabilis ticks on Days 5 and 12, with tick classification, counts and removal on Days 7 and 14 (approximately 48 hours after each infestation). For negative control and 7 (25 mg/kg solid oral dosage form) groups, dogs were re-infested with approximately 50 unfed, adult D. variabilis ticks on Days 19 and 28, with tick classification, counts and removal on Days 21 and 30. Immediately following removal of ticks on Day 30, dogs in the negative control and 7 (25 mg/kg solid oral dosage form) groups were infested with approximately 100 unfed, adult cat fleas (C. felis). Flea counts were conducted approximately 48 hours later, on Day 32.
as §1
The efficacy of 7, administered orally at a point dose of 25 mg/kg bodyweight, was evaluated against adult tick (Dermacentor variabilis) infestations. Twelve (12) male and female beagle dogs were allocated to three treatment groups: Untreated, negative control A; 7 group B; and 7 group C (n=4 dogs per group). Dogs were infested with approximately 50 unfed, adult D. variabilis ticks on Days −1, 5, 12, 19 and 28. […]

CC1(C)OB(O)c2ccc(C3=NOC(c4cc(Cl)c(Cl)c(Cl)c4)(C(F)(F)F)C3)cc21 (racemic) [Compound 7, 3,3-Dimethyl-5-(5-(3,4,5-trichlorophenyl)-5-(trifluoromethyl)-4,5-dihydroisoxazol-3-yl)benzo[c][1,2]oxaborol-1(3H)-ol]
% efficacy ([1]; 8 hours post-treatment): (11.8) %
Geometric mean group live flea count ([1]; 8 hours post-treatment): 75.6
Geometric mean group live flea count ([1]; 12 hours post-treatment): 0.3
Geometric mean group live flea count ([1]; 24 hours post-treatment): 0.0
mortality at 300 µM [2]: ≥ 80%
% efficacy ([3]; 25 mg/kg oral capsule, Day 17): (75.0) %
Geometric mean group live tick count ([3]; 25 mg/kg oral capsule, Day 17): 8.0
Geometric mean group live tick count ([3]; 50 mg/kg oral capsule, Day 17): 1.6
% efficacy ([3]; 50 mg/kg oral capsule, Day 30): (63.9) %
Geometric mean group live tick count ([3]; 50 mg/kg oral capsule, Day 30): 13.4
tolerability ([4]; oral 25 mg/kg, Example 7): well tolerated
tolerability ([4]; oral 50 mg/kg, Example 6): well tolerated
tolerability ([4]; oral 5 or 25 mg/kg, Example 4): well tolerated
tolerability ([4]; oral 25 or 50 mg/kg, Example 5): well tolerated
